Source: US11623919B2, “Heterocyclic P2X7 antagonists” (AXXAM S.P.A., priority 2017, dated 2023)

What was measured:
Test in all cases: Screen Quest Fluo-8 No Wash Calcium Assay (Bz-ATP evoked Ca2+ influx, FLIPR)
Type in all cases: cell-based
P2X7 receptor [1] = molecular target: T1, P2X7 receptor (Mus musculus, UniProt Q9Z1M0); settings: mP2X7; HEK-293 cells stably transfected with P2X7 receptor, Bz-ATP at EC80, Fluo-8 NW; potency ranges A-D
T1 construct: mP2X7 (IC50; nM); other: mP2X7; HEK-293 cells stably transfected with P2X7 receptor, Bz-ATP at EC80, Fluo-8 NW; potency
T1 sequence (Q9Z1M0 1-595): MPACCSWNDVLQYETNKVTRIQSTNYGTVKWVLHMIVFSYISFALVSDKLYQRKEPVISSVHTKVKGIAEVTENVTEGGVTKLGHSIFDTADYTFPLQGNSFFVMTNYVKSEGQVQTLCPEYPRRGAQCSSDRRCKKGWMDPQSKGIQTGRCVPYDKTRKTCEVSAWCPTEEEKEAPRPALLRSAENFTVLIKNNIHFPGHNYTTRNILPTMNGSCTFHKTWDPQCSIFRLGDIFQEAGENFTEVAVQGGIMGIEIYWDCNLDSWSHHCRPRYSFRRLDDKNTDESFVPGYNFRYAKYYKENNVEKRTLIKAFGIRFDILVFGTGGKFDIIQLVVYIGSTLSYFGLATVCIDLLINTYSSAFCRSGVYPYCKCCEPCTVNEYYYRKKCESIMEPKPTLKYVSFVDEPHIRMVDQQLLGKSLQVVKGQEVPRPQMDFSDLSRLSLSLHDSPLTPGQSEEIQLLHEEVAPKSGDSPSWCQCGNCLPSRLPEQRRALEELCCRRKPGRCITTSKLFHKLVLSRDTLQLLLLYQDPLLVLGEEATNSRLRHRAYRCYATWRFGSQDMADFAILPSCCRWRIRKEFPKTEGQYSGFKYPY
Outline: (§1)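 Compounds were added to Fluo-8-loaded P2X7-transfected HEK-293 cells 5 min before an EC80 Bz-ATP challenge, and Ca2+ influx was then recorded for 3 min. Buffer held 0.3 mM Ca2+ and no Mg2+. Inhibition was normalised to A438079, giving IC50 values.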

P2X7 receptor [2] = molecular target: T2, P2X7 receptor (Rattus norvegicus, UniProt Q64663); settings: rP2X7; HEK-293 cells stably transfected with P2X7 receptor, Bz-ATP at EC80, Fluo-8 NW; potency ranges A-D
T2 construct: rP2X7 (IC50; nM); other: rP2X7; HEK-293 cells stably transfected with P2X7 receptor, Bz-ATP at EC80, Fluo-8 NW; potency
T2 sequence (Q64663 1-595): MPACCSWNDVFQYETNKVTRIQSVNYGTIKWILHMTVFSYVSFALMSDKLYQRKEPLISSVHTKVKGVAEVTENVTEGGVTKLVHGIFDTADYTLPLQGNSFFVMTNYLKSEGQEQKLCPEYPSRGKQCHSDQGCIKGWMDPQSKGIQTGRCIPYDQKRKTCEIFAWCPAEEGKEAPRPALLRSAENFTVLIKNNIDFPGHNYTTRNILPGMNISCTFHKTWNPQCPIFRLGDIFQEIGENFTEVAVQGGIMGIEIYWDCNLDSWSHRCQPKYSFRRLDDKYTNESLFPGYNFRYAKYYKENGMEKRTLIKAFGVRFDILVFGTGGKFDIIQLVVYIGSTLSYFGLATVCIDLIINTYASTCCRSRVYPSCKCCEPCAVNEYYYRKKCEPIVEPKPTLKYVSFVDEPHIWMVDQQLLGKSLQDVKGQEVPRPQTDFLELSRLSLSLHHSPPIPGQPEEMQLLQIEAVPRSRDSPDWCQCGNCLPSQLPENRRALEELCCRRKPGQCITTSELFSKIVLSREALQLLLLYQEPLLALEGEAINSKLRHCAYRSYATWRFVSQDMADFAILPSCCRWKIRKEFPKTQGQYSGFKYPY
Outline: as §1

P2X7 receptor [3] = molecular target: T3, P2X7 receptor (Homo sapiens, UniProt Q99572); parameters: hP2X7 (IC50; nM); other: hP2X7; HEK-293 cells stably transfected with P2X7 receptor, Bz-ATP at EC80, Fluo-8 NW; potency; settings: hP2X7; HEK-293 cells stably transfected with P2X7 receptor, Bz-ATP at EC80, Fluo-8 NW; potency ranges A-D
T3 sequence (Q99572 1-595): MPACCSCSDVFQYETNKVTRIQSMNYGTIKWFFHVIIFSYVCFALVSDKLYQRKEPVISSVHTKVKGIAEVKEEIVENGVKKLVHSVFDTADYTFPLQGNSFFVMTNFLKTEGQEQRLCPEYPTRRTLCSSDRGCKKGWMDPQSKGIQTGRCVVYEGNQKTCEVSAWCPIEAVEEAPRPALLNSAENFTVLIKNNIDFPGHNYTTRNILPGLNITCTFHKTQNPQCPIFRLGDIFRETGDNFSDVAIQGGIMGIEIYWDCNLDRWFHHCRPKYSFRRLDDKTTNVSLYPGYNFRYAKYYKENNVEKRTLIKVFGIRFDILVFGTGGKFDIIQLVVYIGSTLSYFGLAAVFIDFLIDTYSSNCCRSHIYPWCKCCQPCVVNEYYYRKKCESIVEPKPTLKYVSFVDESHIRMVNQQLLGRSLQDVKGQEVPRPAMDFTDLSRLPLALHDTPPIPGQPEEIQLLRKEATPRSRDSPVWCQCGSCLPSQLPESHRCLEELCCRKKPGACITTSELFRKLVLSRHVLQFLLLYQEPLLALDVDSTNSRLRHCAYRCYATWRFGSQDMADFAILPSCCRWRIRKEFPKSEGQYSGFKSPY
Outline: as §1

Row | IC50 (P2X7 receptor [1]) [nM] | IC50 (P2X7 receptor [2]) [nM] | IC50 (P2X7 receptor [3]) [nM] | Compound
1 | 200 to 1000 | < 200 | < 200 | O=c1onc(Cc2c(F)cccc2Cl)n1CC12CCC(CC1)C2 [Example 91, 4-{bicyclo [2.2.1]heptan-1-ylmethyl}-3-[(2-chloro-6-fluorophenyl)methyl]-4,5-dihydro-1,2,4-oxadiazol-5-one]
2 | 200 to 1000 | < 200 | < 200 | O=c1onc(Cc2c(F)cccc2Cl)n1CC1CCCCCC1 [Example 92, 3-[(2-chloro-6-fluorophenyl)methyl]-4-(cycloheptylmethyl)-4,5-dihydro-1,2,4-oxadiazol-5-one]
3 | 1000 to 10000 | 200 to 1000 | 200 to 1000 | O=c1onc(Cc2c(F)cccc2Cl)n1CC1CCCCO1 (stereo not drawn) [Example 94, 3-[(2-chloro-6-fluorophenyl)methyl]-4-(oxan-2-ylmethyl)-4,5-dihydro-1,2,4-oxadiazol-5-one]
4 | 200 to 1000 | 200 to 1000 | 200 to 1000 | O=c1onc(Cc2c(F)cccc2Cl)n1CC1(F)CCCCC1 [Example 96, 3-[(2-chloro-6-fluorophenyl)methyl]-4-[(1-fluorocyclohexyl)methyl]-4,5-dihydro-1,2,4-oxadiazol-5-one]
5 | 200 to 1000 | < 200 | < 200 | O=c1onc(Cc2c(F)cccc2Cl)n1CC1CCCCC1(F)F (stereo not drawn) [Example 97, 3-[(2-chloro-6-fluorophenyl)methyl]-4-[(2,2-difluorocyclohexyl)methyl]-4,5-dihydro-1,2,4-oxadiazol-5-one]
6 | 200 to 1000 | 200 to 1000 | 200 to 1000 | CC1(C)CCCCC1Cn1c(Cc2c(F)cccc2Cl)noc1=O (stereo not drawn) [Example 99, 3-[(2-chloro-6-fluorophenyl)methyl]-4-[(2,2-dimethylcyclohexyl)methyl]-4,5-dihydro-1,2,4-oxadiazol-5-one]
7 | 200 to 1000 | < 200 | 200 to 1000 | O=c1onc(Cc2ccc(F)cc2Cl)n1CC1CCCCC1 [Example 114, 3-[(2-chloro-4-fluorophenyl)methyl]-4-(cyclohexylmethyl)-4,5-dihydro-1,2,4-oxadiazol-5-one]
8 | 1000 to 10000 | 200 to 1000 | 200 to 1000 | O=c1onc(Cc2cccc(Cl)c2Cl)n1CC1CCCCC1 [Example 115, 4-(cyclohexylmethyl)-3-[(2,3-dichlorophenyl)methyl]-4,5-dihydro-1,2,4-oxadiazol-5-one]
9 | 1000 to 10000 | 200 to 1000 | 200 to 1000 | O=c1onc(Cc2ccccc2C(F)(F)F)n1CC1CCCCC1 [Example 116, 4-(cyclohexylmethyl)-3-{[2-(trifluoromethyl)phenyl]methyl}-4,5-dihydro-1,2,4-oxadiazol-5-one]
10 | 200 to 1000 | < 200 | 200 to 1000 | O=c1onc(Cc2ccccc2Cl)n1CC1CCCCC1 [Example 117, 3-[(2-chlorophenyl)methyl]-4-(cyclohexylmethyl)-4,5-dihydro-1,2,4-oxadiazol-5-one]
11 | 1000 to 10000 | 200 to 1000 | 200 to 1000 | O=c1onc(Cc2ccc(Cl)cc2Cl)n1CC1CCCCC1 [Example 118, 4-(cyclohexylmethyl)-3-[(2,4-dichlorophenyl)methyl]-4,5-dihydro-1,2,4-oxadiazol-5-one]
12 | 200 to 1000 | < 200 | 200 to 1000 | O=c1onc(Cc2ccc(F)cc2F)n1CC1CCCCC1 [Example 119, 4-(cyclohexylmethyl)-3-[(2,4-difluorophenyl)methyl]-4,5-dihydro-1,2,4-oxadiazol-5-one]
13 | 200 to 1000 | < 200 | 200 to 1000 | O=c1onc(Cc2ccccc2F)n1CC1CCCCC1 [Example 120, 4-(cyclohexylmethyl)-3-[(2-fluorophenyl)methyl]-4,5-dihydro-1,2,4-oxadiazol-5-one]
14 | 200 to 1000 | < 200 | 200 to 1000 | O=c1onc(CC2CCCCC2)n1Cc1c(F)cccc1Cl [Example 130, 4-[(2-chloro-6-fluorophenyl)methyl]-3-(cyclohexylmethyl)-4,5-dihydro-1,2,4-oxadiazol-5-one]
15 | < 200 | < 200 | < 200 | O=c1onc(CC2CCC(F)(F)CC2)n1Cc1c(F)cccc1Cl [Example 132, 4-[(2-chloro-6-fluorophenyl)methyl]-3-[(4,4-difluorocyclohexyl)methyl]-4,5-dihydro-1,2,4-oxadiazol-5-one]
16 | 1000 to 10000 | 200 to 1000 | 200 to 1000 | O=c1snc(Cc2c(F)cccc2Cl)n1CC1CCCCC1 [Example 140, 3-[(2-chloro-6-fluorophenyl)methyl]-4-(cyclohexylmethyl)-4,5-dihydro-1,2,4-thiadiazol-5-one]
17 | < 200 | < 200 | < 200 | O=c1snc(Cc2c(F)cccc2Cl)n1CC1CCC(F)(F)CC1 [Example 141, 3-[(2-chloro-6-fluorophenyl)methyl]-4-[(4,4-difluorocyclohexyl)methyl]-4,5-dihydro-1,2,4-thiadiazol-5-one]
18 | 200 to 1000 | 200 to 1000 | 200 to 1000 | O=c1onc(Cc2c(F)cccc2Cl)n1CCC1CCCCC1 [Example 142, 3-(2-chloro-6-fluorobenzyl)-4-(2-cyclohexylethyl)-1,2,4-oxadiazol-5(4H)-one]
19 | 1000 to 10000 | 200 to 1000 | 200 to 1000 | Cc1noc(C)c1Cc1noc(=O)n1CC1CCCCC1 [Example 210, 4-(cyclohexylmethyl)-3-[(dimethyl-1,2-oxazol-4-yl)methyl]-4,5-dihydro-1,2,4-oxadiazol-5-one]
20 | 1000 to 10000 | 200 to 1000 | < 200 | Cc1noc(C)c1Cc1noc(=O)n1CC1CCC(F)(F)CC1 [Example 211, 4-[(4,4-difluorocyclohexyl)methyl]-3-[(dimethyl-1,2-oxazol-4-yl)methyl]-4,5-dihydro-1,2,4-oxadiazol-5-one]
